Experiments:
healthy SD rats = details: subcutaneous implantation, n = 6
[1] = test system: beagles with blood clot defect (heparin); test: Beagle tooth extraction BCD model: coagulation time; assay type: in vivo; details: treated immediately after tooth extraction, n = 7
[2] = test system: hypertensive rats with blood clot defect (BCD); test: Rat BCD model: immunofluorescent staining of CD73&Fak, Runx2, Alp; assay type: in vivo; details: BCgel vs Ctrl, n = 6
BCD rats = details: rat, in vivo
[3] = test system: hypertensive rats with blood clot defect (BCD); assay type: in vivo, rat; details: micro-CT
[4] = test system: hypertensive rats with blood clot defect (BCD); test: Rat incisor extraction BCD model: coagulation time; assay type: in vivo; details: treated immediately after tooth extraction, n = 12
beagles = test: Beagle BCD model: overall toxicity incl. cardiotoxicity and organ H&E
[5] = test system: beagles with blood clot defect (heparin); parameters: species or system beagle; details: dog, in vivo

(RADA)4GSVLGYIQIR [BCgel]
hematological parameters (healthy SD rats): nor did they have any impact on hematological parameters | hepatic or renal function (healthy SD rats): neither BCgel nor gelform induced any hepatic or renal abnormalities | reduction in coagulation time vs gelform (Ctrl) [1]: 69% | increase in CD73+&Fak+ double positive cells ([2]; one-month post-treatment): 15 fold | increase in CD73+&Fak+ double positive cells ([2]; one-week post-treatment): 31 fold | increase in bone mineral density (BMD) (BCD rats): 39% | reduction in trabecular separation (Tb.Sp) (BCD rats): 50% | osteogenic effects of mechanically unloaded BCgel ([3]; 0.5% BCgel vs gelform (Ctrl), n = 3): negligible osteogenic effects | decrease in Tb.Sp compared to the Ctrl group ([3]; 1 week post-treatment, n = 6): 47% | increase in BMD compared to the Ctrl group ([3]; 1 week post-treatment, n = 6): 73% | increase in BV/TV compared to the Ctrl group ([3]; 1 week post-treatment, n = 6): 84% | reduction in coagulation time compared to gelform [4]: 55% | immunotoxicity, hematotoxicity, hepatotoxicity, nephrotoxicity, cardiotoxicity (beagles; BCgel for two months, n = 4): did not result in any observed immunotoxicity | physiological toxicity (hematotoxicity, hepatotoxicity, nephrotoxicity, cardiotoxicity) (beagles; five months after tooth extraction, n = 3): no signs of physiological toxicity | elevation in Tb.N compared to the Ctrl group [5]: 56% | enhancement in BMD compared to the Ctrl group [5]: 105% | increase in BV/TV compared to the Ctrl group [5]: 143% | reduction in Tb.Sp compared to the Ctrl group [5]: 60%
